Earlier results in US7872019B2, “Polymorphs and amorphous form of (S)-(+)-clopidogrel bisulfate” (Cadila Healthcare Limited, priority 2003, dated 2011).

What was measured:
platelet aggregation = settings: comparison of the two enantiomers, in words
[1] = comparison of the two enantiomers, in words

| SMILES | antiagregant platelet activity (platelet aggregation) | tolerance [1] |
| --- | --- | --- |
| COC(=O)[C@@H](c1ccccc1Cl)N1CCc2sccc2C1 (single isomer, unassigned) [levorotatory enantiomer of (I)] | less active | less tolerated |
| COC(=O)[C@H](c1ccccc1Cl)N1CCc2sccc2C1 [dextrorotatory enantiomer of formula (I) of Clopidogrel] | excellent antiagregant platelet activity |  |
